Source: patent US20080051466A1, “Isoalpha acid based protein kinase modulation cancer treatment” (Metaproteomics, LLC, priority 2006, published 2008)
Marks after values point to notes of the source that are not given here.

Legend:
[1] = tested on: A549 pulmonary epithelial cells; experiment: PGE2 biosynthesis in A549 cells stimulated by mite dust allergen; type: cell-based, human; details: 10 μg/ml, mite dust allergen 1000 ng/ml, 18 h
Method: The filtrate was termed mite dust allergen and used to test for induction of PGE2 biosynthesis in A549 pulmonary epithelial cells.
Mite allergen was added to the culture medium to achieve a final concentration of 1000 ng/ml. Eighteen hours later, the media were sampled for PGE2 determination.

[2] = tested on: LPS/3T3-L1 adipocytes; experiment: Adiponectin secretion in LPS/3T3-L1 adipocytes; type: cell-based, murine; details: 100 ng/ml LPS; for induction of adiponectin secretion: any of the doses tested
[3] = tested on: LPS/3T3-L1 adipocytes; experiment: IL-6 secretion in LPS/3T3-L1 adipocytes; type: cell-based, murine; details: 100 ng LPS/ml, D5 3T3-L1
[4] = tested on: TNFα-treated 3T3-L1 adipocytes; experiment: Adiponectin secretion from TNFα-treated 3T3-L1 adipocytes; type: cell-based, murine; details: for increase of adiponectin secretion in the presence of TNFα: optimal concentration; for Concentration of maximum adiponectin secretion: over four doses
Method: 3T3-L1 cells were seeded at an initial density of 1×10^4 cells/cm^2 in 96-well plates. For two days, the cells were allowed grow to reach confluence. Following confluence, the cells were forced to differentiate into adipocytes by the addition of differentiation medium; this medium consisted of (1) 10% FBS/DMEM (high glucose); (2) 0.5 mM methylisobutylxanthine; (3) 0.5 μM dexamethasone and (4) 10 μg/ml insulin (MDI medium). From Day 3 through Day 5, the medium was changed to post-differentiation medium consisting of 10% FBS in DMEM. […] On Day 6, the supernatant medium was sampled for adiponectin determination.
(§1) Adiponectin Assay—The adiponectin secreted into the medium was quantified using the Mouse Adiponectin Quantikine® Immunoassay kit with no modifications (R&D Systems, Minneapolis, Minn.).

[5] = tested on: insulin-resistant 3T3-L1 adipocytes; experiment: Adiponectin secretion from insulin-resistant 3T3-L1 adipocytes; type: cell-based, murine; details: 50.0 μg/ml
Method: 3T3-L1 cells were seeded at an initial density of 1×10^4 cells/cm^2 in 96-well plates. For two days, the cells were allowed grow to reach confluence. Following confluence, the cells were forced to differentiate into adipocytes by the addition of differentiation medium; this medium consisted of (1) 10% FBS/DMEM (high glucose); (2) 0.5 mM methylisobutylxanthine; (3) 0.5 μM dexamethasone and (4) 10 μg/ml insulin (MDI medium). From Day 3 through Day 5, the medium was changed to post-differentiation medium consisting of 10 μg/ml insulin in 10% FBS/DMEM.
Briefly, on Day 6, cells were maintained in serum-free media containing 0.5% bovine serum albumin (BSA) for three hours and then treated with 1 μg insulin/ml plus solvent or insulin plus test material. […] Twenty-four hours later, the supernatant medium was sampled for adiponectin determination.
as §1
Substituting {relative adiponectin secretion/[concentration])} for the independent variable v/[S] and {relative adiponectin secretion} for the dependant variable {v}, produced a relationship of the form y=mx+b. […]

[6] = tested on: NF-kBp65; experiment: NF-kBp65 nuclear translocation in TNFα-treated 3T3-L1 adipocytes; type: cell-based, murine; details: 2.5 and 5.0 μg/ml, three or 24 hours following TNFα
Method: Cell Culture and Treatment—Following differentiation 3T3-L1 adipocytes were maintained in post-differentiation medium for an additional 40 days. […] Hops derivatives and the positive control pioglitazone were tested at concentrations of 2.5, and 5.0 μg/ml. Test materials were added 1 hour prior to and nuclear extracts were prepared three and 24 hours following treatment with TNFα.
ELISA-3T3-L1 adipocytes were maintained in growth media for 40 days following differentiation. Nuclear NF-kBp65 was determined using the TransAM™ NF-kB kit from Active Motif (Carlsbad, Calif.) was used with no modifications. Jurkat nuclear extracts provided in the kit were derived from cells cultured in medium supplemented with 50 ng/ml TPA (phorbol, 12-myristate, 13 acetate) and 0.5 μM calcium ionophore A23187 for two hours at 37° C. immediately prior to harvesting.
Protein assay—Nuclear protein was quantified using the Active Motif Fluorescent Protein Quantification Kit.

## Beta acids
[1]
  Percent PGE2 Inhibition: 83%

## O=C(O)c1ccccc1O [salicylic acid]
[2]
  induction of adiponectin secretion: failed to induce adiponectin secretion
[3]; 50.0 μg/ml (dose of maximum inhibition)
  IL-6 Index at maximum inhibition: 0.52*

## CC(=O)Oc1ccccc1C(=O)O [Aspirin, aspirin]
[2]
  induction of adiponectin secretion: failed to induce adiponectin secretion

## COc1ccc2c(c1)c(CC(=O)O)c(C)n2C(=O)c1ccc(Cl)cc1 [Indomethacin, indomethacin]
[2]; […]
  maximum adiponectin stimulation: 9%
[4]; 10 ng TNFα/ml
  increase of adiponectin secretion in the presence of TNFα: 94%
  Concentration of maximum adiponectin secretion: 5.0 µg/mL
[4]; 10 ng TNFα/ml, listed as indomethacin
  Concentration of maximum adiponectin secretion: 2.5 µg/mL
[3]; 5.00 μg/ml
  Maximum inhibition of IL-6 secretion, % Inhibition: 53* %

## CC(C)CCC1=C(O)C(C(=O)C(C)C)=C(O)C(CCC(C)C)(CCC(C)C)C1=O [Hexahydrocolupulone (HHCL)]
[5]
  Adiponectin/IL-6: 0.60#

## CCc1ccc(CCOc2ccc(CC3SC(=O)NC3=O)cc2)nc1 (stereo not drawn) [Pioglitazone, pioglitazone]
[6]
  inhibition of the amount of nuclear NF-kBp65: did not inhibit
[4]; 10 ng TNFα/ml
  increase of adiponectin secretion in the presence of TNFα: 80%
[4]; 10 ng TNFα/ml, [Adiponectin]Test/[Adiponectin]TNFα control
  Adiponectin Index (relative maximum adiponectin secretion): 1.47
[4]; 1.0 μg/ml, TNFα/3T3-L1, curcumin/XN combinations, indexed to TNFα control
  Adiponectin Index Observed: 1.80
[3]; 5.00 μg/ml (dose of maximum inhibition)
  IL-6 Index at maximum inhibition: 0.37*
